{"source": "paper PMC2410273", "about": "“Pharmacokinetic behaviour of the chemoprotectants BNP7787 and mesna after an i.v. bolus injection in rats” (British Journal of Cancer, 2004)", "key": {"[1]": {"test": "Pharmacokinetics and tissue distribution of BNP7787 and mesna after i.v. bolus of BNP7787 or mesna in WARD tumour-bearing rats", "format": "in vivo, Fischer rats", "conditions": "for AUC, fold lower after BNP7787 than after mesna administration / AUC after BNP7787 administration compared with after mesna administration: each 1000 mg kg^−1 i.v.; for Kp: 1000 mg/kg", "from_the_text": "The protocol was approved by the ethics committee for animal experiments of the Vrije Universiteit medical center in Amsterdam, The Netherlands. This committee strictly adheres to the standards required by the UKCCCR for the welfare of animals in neoplasia ([Workman et al, 1998]). Female Fischer rats (144–171 g) were obtained from Harlan (Indianapolis, USA) and were implanted subcutaneously in both flanks with fragments (2–3 mm diameter) of the WARD colorectal tumour ([Cao et al, 1994]). The pharmacokinetic study started at the time the tumours had reached a mean size of approximately 600 mm^3 (range 250–900 mm^3).\nTumour-bearing rats were treated with 1000 mg kg^−1 BNP7787 i.v. or 1000 mg kg^−1 mesna i.v. injected in the tail vein. Approximately 5 min before sample collection, the rats were anaesthetised by i.p. injection with 0.1 ml of a mixture of 75 mg ml^−1 ketamine plus 5 mg ml^−1 xylazine per 100 g weight. Blood was obtained by heart puncture at 0, 5, 15, 30, 45, 60, 90 and 150 min after i.v. administration of BNP7787 or mesna. Thereafter, the kidney, liver and tumour were removed by surgical dissection. In addition, at time points 0 and 30 min, skeletal muscle attached to the thighbone was also collected. At each time point three rats were killed.\nImmediately after collection, the blood samples, which were collected in cooled EDTA-containing tubes (potassium-EDTA 1.6 mg EDTA ml^−1 blood; Sarstedt, Germany), were centrifuged at 4°C for 10 min at 4000 g. Plasma was separated and immediately deproteinised by adding one volume of sulphuric acid (0.33 M) and one volume of sodium hexametaphosphate (5 g/100 ml). After vortexing and centrifugation for 2 min at 12 000 g, the supernatant was stored in aliquots at −80°C until analysis. One volume of RBCs was washed with 1 volume of cold phosphate-buffered saline (PBS) of pH 7.4 containing sodium phosphate (10 mM) and NaCl (140 mM; Hospital Pharmacy, VUmc, Amsterdam, The Netherlands). This mixture was centrifuged for 2 min, 12 000 g at 4°C. After removing the PBS, the remaining RBCs were stored in liquid nitrogen until further processing.\nThe kidney, liver, tumour and skeletal muscle were washed with cold PBS before storage in liquid nitrogen. After collection of all the samples at the different time points, tissue homogenates of kidney, liver, tumour and skeletal muscle were prepared by pulverisation using a Braun Micro-dismembrator (Salm and Kipp; Breukelen, The Netherlands) according to the method described by [Peters et al (1986)]. An appropriate volume of aqueous EDTA (1 g l^−1) was added to the RBC and tissue homogenates to obtain a concentration of 100 mg tissue (wet weight) per ml. After sonification (10 min) and vortexing (10 min), the samples were subsequently deproteinised by adding 1 volume of cold sulphuric acid (0.33 M) and 1 volume of cold sodium hexametaphosphate (5 g/100 ml). After thorough vortexing and centrifugation (2 min at 8500 g at 4°C), the supernatants were stored in aliquots at −80° until analysis.\nBNP7787 and mesna concentrations were determined selectively in one run using micro-HPLC with a dual electrochemical detector (dual ECD) ([Verschraagen et al, 2003b]). Briefly, citrate-NaOH buffer (40 μl of a mixture of 1 ml 5.0 M sodium hydroxide and 4 ml 0.5 M tri-sodium citrate buffer, pH 3.0) was added to 200 μl of deproteinised plasma, RBC or tissue sample, and the sample was injected into the micro-HPLC system which consisted of a Phenomenex C18 guard column (10 μm, 4 × 2.0 mm) and a Phenomenex Prodigy C18 ODS-3 column (5 μm, 100 × 1.0 mm; Bester, Amstelveen, The Netherlands)."}, "[2]": {"set-up": "method as in Boven et al, 2002", "conditions": "nude mice; after BNP7787 administration; ref Boven et al, 2002; cited from earlier work"}, "[3]": {"system": "antitumour activity of cisplatin", "set-up": "method as in Hausheer et al, 1998", "conditions": "tumour-bearing rats; given preceding cisplatin; ref Hausheer et al, 1998; cited from earlier work"}, "[4]": {"system": "antitumour activity of cisplatin", "set-up": "method as in Boven et al, 2002", "conditions": "tumour-bearing nude mice; given preceding cisplatin; ref Boven et al, 2002; cited from earlier work"}}, "note": "Read-outs that look alike come from different tables or passages of the source.", "data": [{"smiles": "O=S(=O)(O)CCS", "note": "[mesna, sodium 2-mercapto ethane sulphonate]", "values": [{"measurement": "mean concentration (±s.d.) in skeletal muscle", "setting": "[1]; 30 min after 1000 mg kg^−1 BNP7787 i.v.", "value": "355.1 ± 113.0", "unit": "nmol/g"}, {"measurement": "mean concentration (±s.d.) in skeletal muscle", "setting": "[1]; 30 min after 1000 mg kg^−1 mesna i.v.", "value": "665.1 ± 209.1", "unit": "nmol/g"}, {"measurement": "AUC, fold lower after BNP7787 than after mesna administration", "setting": "[1]; RBC, P<0.01", "value": 6.2, "unit": "fold"}, {"measurement": "time detectable", "setting": "[1]; after 1000 mg kg^−1 BNP7787 i.v., RBC", "value": "up to 90 min"}, {"measurement": "time detectable", "setting": "[1]; after 1000 mg kg^−1 BNP7787 i.v., kidney", "value": "at least 150 min"}, {"measurement": "time detectable", "setting": "[1]; after 1000 mg kg^−1 BNP7787 i.v., liver", "value": "up to 90 min"}, {"measurement": "time detectable", "setting": "[1]; after 1000 mg kg^−1 BNP7787 i.v., plasma", "value": "up to 90 min"}, {"measurement": "time detectable", "setting": "[1]; after 1000 mg kg^−1 BNP7787 i.v., tumour", "value": "at least 150 min"}, {"measurement": "time detectable", "setting": "[1]; after 1000 mg kg^−1 mesna i.v., RBC", "value": "at least 150 min"}, {"measurement": "time detectable", "setting": "[1]; after 1000 mg kg^−1 mesna i.v., kidney", "value": "at least 150 min"}, {"measurement": "time detectable", "setting": "[1]; after 1000 mg kg^−1 mesna i.v., liver", "value": "at least 150 min"}, {"measurement": "time detectable", "setting": "[1]; after 1000 mg kg^−1 mesna i.v., plasma", "value": "at least 150 min"}, {"measurement": "AUC of mesna relative to AUC of BNP7787", "setting": "[1]; after 1000 mg kg^−1 mesna i.v., plasma and all tissues sampled", "value": "at least seven-fold higher"}, {"measurement": "time detectable", "setting": "[1]; after 1000 mg kg^−1 mesna i.v., tumour", "value": "at least 150 min"}, {"measurement": "AUC^5−60 in plasma, fold higher in rats than in nude mice", "setting": "[1]; after equivalent dose of 1000 mg kg^−1 BNP7787, mouse data ref Boven et al, 2002", "value": "approximately 5.2 fold"}, {"measurement": "AUC of mesna in tumour relative to AUC of mesna in plasma", "setting": "[1]; after mesna administration", "value": "at least three-fold lower"}, {"measurement": "AUC, fold lower than the corresponding value in kidney", "setting": "[1]; all other sampled tissue compartments, after either BNP7787 or mesna", "value": "at least 5.5 fold"}, {"measurement": "Kp", "setting": "[1]; female, Fischer, rat, all tissue compartments other than kidney / plasma, iv, after 1000 mg kg^−1 mesna i.v., all tissue compartments other than kidney, read-out: tissue–plasma AUC ratio", "value": "< 0.3"}, {"measurement": "Tmax", "setting": "[1]; female, Fischer, rat, iv, after 1000 mg kg^−1 BNP7787 i.v., liver, read-out: time of maximal concentration in liver (converted)", "value": 5, "unit": "min"}, {"measurement": "Kp", "setting": "[1]; female, Fischer, rat, kidney / plasma, iv, after 1000 mg kg^−1 BNP7787 i.v., read-out: kidney–plasma AUC ratio", "value": 4.5}, {"measurement": "Kp", "setting": "[1]; female, Fischer, rat, kidney / plasma, iv, after 1000 mg kg^−1 mesna i.v., read-out: kidney–plasma AUC ratio", "value": 1.7}, {"measurement": "Kp", "setting": "[1]; female, Fischer, rat, liver / plasma, iv, after 1000 mg kg^−1 BNP7787 i.v., read-out: liver–plasma AUC ratio", "value": 0.5}, {"measurement": "Kp", "setting": "[1]; female, Fischer, rat, red blood cells / plasma, iv, after 1000 mg kg^−1 BNP7787 i.v., read-out: RBC–plasma AUC ratio", "value": 0.1}, {"measurement": "Kp", "setting": "[1]; female, Fischer, rat, tumour / plasma, iv, after 1000 mg kg^−1 BNP7787 i.v., read-out: tumour–plasma AUC ratio", "value": 0.7}, {"measurement": "AUC, fold lower after BNP7787 than after mesna administration", "setting": "[1]; kidney, P<0.01", "value": 1.9, "unit": "fold"}, {"measurement": "AUC after BNP7787 administration compared with after mesna administration", "setting": "[1]; liver", "value": "similar"}, {"measurement": "AUC after BNP7787 administration compared with after mesna administration", "setting": "[1]; plasma, P<0.01", "value": "five-fold lower"}, {"measurement": "AUC of mesna in plasma as % of the AUC of BNP7787", "setting": "[1]; rats, after BNP7787 administration", "value": "approximately 50%"}, {"measurement": "AUC, fold lower after BNP7787 than after mesna administration", "setting": "[1]; tumour, not statistically significant", "value": 2.1, "unit": "fold"}, {"measurement": "AUC of mesna in plasma as % of the AUC of BNP7787", "setting": "[2]", "value": "approximately 24%"}, {"measurement": "effect on antitumour activity of cisplatin", "setting": "[3]", "value": "can reduce the number of complete and partial tumour remissions"}, {"measurement": "effect on antitumour activity of cisplatin", "setting": "[4]", "value": "reduce the specific growth delay"}]}]}
